Measured values: paper PMC10182447 (BioImpacts : BI, 2022)

Target: Human serum albumin (HSA) (Homo sapiens, UniProt P02768)
Experiment: fluorescence quenching titration
Type: binding

Sequence of Human serum albumin (HSA) (P02768 25-609): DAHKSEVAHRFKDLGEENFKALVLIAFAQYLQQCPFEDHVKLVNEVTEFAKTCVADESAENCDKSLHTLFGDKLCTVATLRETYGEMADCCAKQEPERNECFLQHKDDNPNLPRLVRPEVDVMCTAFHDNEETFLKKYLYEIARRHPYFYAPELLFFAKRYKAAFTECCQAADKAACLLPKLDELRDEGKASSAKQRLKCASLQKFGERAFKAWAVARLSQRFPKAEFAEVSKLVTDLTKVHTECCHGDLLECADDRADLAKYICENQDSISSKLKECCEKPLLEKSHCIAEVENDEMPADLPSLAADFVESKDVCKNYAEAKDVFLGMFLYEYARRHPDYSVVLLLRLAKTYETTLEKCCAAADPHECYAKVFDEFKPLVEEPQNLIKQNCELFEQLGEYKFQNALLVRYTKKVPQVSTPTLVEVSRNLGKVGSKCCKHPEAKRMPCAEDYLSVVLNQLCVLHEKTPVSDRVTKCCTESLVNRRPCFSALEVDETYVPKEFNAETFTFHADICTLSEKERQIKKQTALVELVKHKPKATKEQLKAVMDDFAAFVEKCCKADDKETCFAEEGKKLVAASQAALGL

Kd: 235 µM
SMILES: CCCCCCCCc1ccc(CCC(N)(CO)CO)cc1 [Fingolimod]
